For one assay, the system named is mouse hair follicles. The settings on record: cited from earlier work.
The test system of assay [1] is human hair follicles. Particulars: cited from earlier work.
Assay [2] relates to human hair follicles. Kind of assay: Hair follicle organ (explant) culture, growth over seven days. The assay is classed as cell-based. An excerpt:
Tissue: Scalp was obtained from normally discarded human skin samples from CHTN and from men and women undergoing hair transplantation (IRB exempted study Protocol #818053). Hair follicle organ culture: Hair follicles were microdissected from discarded tissues from hair transplant patients and cultured for seven days as described by Philpott et al. (J. Dermatol. Sci. Suppl: S55-72. (1994)) in the presence or absence of PGD2 and/or DP-2 antagonist, with a change of culture medium every two days. Hair follicles were photographed at the beginning and end of the culture period. Hair follicle growth was measured from the photographs using Image J software.

A further assay deals with C57BL mice. Kind of assay: Topical application to depilated back skin of mice, hair cycle stage and hair length. The format is in vivo, mouse. How it is done:
Animal studies: The back skins of C57BL mice at 6-7 week were depilated. DP-2 antagonists were dissolved in 95% EtOH/2% Glycerol/3% PEG. 100 μL of each compound was spread on the shaved back skin once daily for 2 weeks starting from day 8 post depilation. At day 22 post depilation hair shafts were plucked for hair length measurement and skins were harvested for histological assessment of hair cycle stages.

For assay [3], the system named is hair follicle keratinocytes. Kind of assay: Immunofluorescence staining of cultured hair follicles for Ki67 and active caspase 3. The format is cell-based, human. How it is done: Immunostaining: Immunofluorescence analysis with anti-Ki67 and anti-Caspase-3 was performed on cryosections of cultured hair follicles or whole mount hair follicles fixed in 4% PFA. Images were photographed with Leica fluorescence microscope.

[4] abbreviates: topical once per day for two weeks, day 22 post depilation.

Turning to `CCCCC/C=C/C=C1/C(=O)C=C[C@@H]1C/C=C\CCCC(=O)O` [15-dPGJ2, 15-deoxy-D12,14-prostaglandin J2], the hair growth entry in the assay on mouse hair follicles and in the assay with human hair follicles [1] was “inhibit hair growth” each time.

For `CCN(Cc1cc(C(F)(F)F)ccc1-c1cc(CC(=O)O)ccc1OC)C(=O)NCc1ccccc1` [AM211], in the assay with human hair follicles [2] (99.5% pure preparation of AM211, FIG. 3B), the “anti-PGD2 activity at high doses” value is on record as “sustained anti-PGD2 activity”. Besides, in the assay on human hair follicles [2] (AM211 at 10 nM, PGD2 10 μM, 7 days), the “rescue of hair follicles from growth inhibition by PGD2” value is given as “rescued hair follicles from the inhibition by PGD2”. Also, the “anti-PGD2 effect at high doses” value in the assay on human hair follicles [2] (AM211 preparation purified to 95% homogeneity, FIG. 3A) is “reduction in anti-PGD2 effect”. Further, in the assay with C57BL mice (topical once per day for two weeks from day 8 post depilation, harvested day 22), the “hair follicles entering catagen (hair cycle stage)” value was “dose-dependent delay in hair follicles entering catagen”. Also, in the assay on C57BL mice (setting [4]), the hair shaft length result is “longer hair shaft” and the “skin area with hair follicles continuing to grow” value is reported as “larger area with hair follicles continuing to grow”.

With `CCCCC[C@H](O)/C=C/[C@H]1C(=O)C[C@H](O)[C@@H]1C/C=C\CCCC(=O)O` [PGD2, prostaglandin D2], the “patients whose hair follicles exhibited PGD2-mediated growth inhibition” value with human hair follicles [2] (Group 1, of 35 patients tested) is 21; in the assay on human hair follicles [2] (Group 2, of 65 patients tested), 31; with human hair follicles [2] (Groups 1 and 2 combined, 100 samples), 52. Also, the “growth of human hair follicles in explant culture” value in the assay on human hair follicles [2] (PGD2 10 μM added to culture medium, 7 days) is reported as “severely inhibited”. Also, the “inhibitory effect on hair growth, dose dependence” value in the assay on human hair follicles [2] (explant culture, FIG. 1B) is listed as “dose-dependent manner”. Moreover, in assay [3], the “apoptosis of hair follicle keratinocytes (active caspase 3)” value is recorded as “promoted apoptosis”. For the same compound, in assay [3], the “proliferation of hair follicle keratinocytes (Ki67)” value is “suppressed proliferation”. For the same compound, the hair growth result in the assay with mouse hair follicles and in the assay with human hair follicles [1] was “inhibit hair growth” each time.

Source of the values: patent US12201625B2, “Single nucleotide polymorphic alleles of human DP-2 gene for detection of susceptibility to hair growth inhibition by PGD2” (THE TRUSTEES OF THE UNIVERSITY OF PENNSYLVANIA, priority 2015, dated 2025).
